Molecules are shown by their SMILES. Structures can show the parent of a compound that is named as a salt.

This assay has as its target T1, SOS1 (Homo sapiens, UniProt Q07889).
T1 sequence (Q07889 1-1333): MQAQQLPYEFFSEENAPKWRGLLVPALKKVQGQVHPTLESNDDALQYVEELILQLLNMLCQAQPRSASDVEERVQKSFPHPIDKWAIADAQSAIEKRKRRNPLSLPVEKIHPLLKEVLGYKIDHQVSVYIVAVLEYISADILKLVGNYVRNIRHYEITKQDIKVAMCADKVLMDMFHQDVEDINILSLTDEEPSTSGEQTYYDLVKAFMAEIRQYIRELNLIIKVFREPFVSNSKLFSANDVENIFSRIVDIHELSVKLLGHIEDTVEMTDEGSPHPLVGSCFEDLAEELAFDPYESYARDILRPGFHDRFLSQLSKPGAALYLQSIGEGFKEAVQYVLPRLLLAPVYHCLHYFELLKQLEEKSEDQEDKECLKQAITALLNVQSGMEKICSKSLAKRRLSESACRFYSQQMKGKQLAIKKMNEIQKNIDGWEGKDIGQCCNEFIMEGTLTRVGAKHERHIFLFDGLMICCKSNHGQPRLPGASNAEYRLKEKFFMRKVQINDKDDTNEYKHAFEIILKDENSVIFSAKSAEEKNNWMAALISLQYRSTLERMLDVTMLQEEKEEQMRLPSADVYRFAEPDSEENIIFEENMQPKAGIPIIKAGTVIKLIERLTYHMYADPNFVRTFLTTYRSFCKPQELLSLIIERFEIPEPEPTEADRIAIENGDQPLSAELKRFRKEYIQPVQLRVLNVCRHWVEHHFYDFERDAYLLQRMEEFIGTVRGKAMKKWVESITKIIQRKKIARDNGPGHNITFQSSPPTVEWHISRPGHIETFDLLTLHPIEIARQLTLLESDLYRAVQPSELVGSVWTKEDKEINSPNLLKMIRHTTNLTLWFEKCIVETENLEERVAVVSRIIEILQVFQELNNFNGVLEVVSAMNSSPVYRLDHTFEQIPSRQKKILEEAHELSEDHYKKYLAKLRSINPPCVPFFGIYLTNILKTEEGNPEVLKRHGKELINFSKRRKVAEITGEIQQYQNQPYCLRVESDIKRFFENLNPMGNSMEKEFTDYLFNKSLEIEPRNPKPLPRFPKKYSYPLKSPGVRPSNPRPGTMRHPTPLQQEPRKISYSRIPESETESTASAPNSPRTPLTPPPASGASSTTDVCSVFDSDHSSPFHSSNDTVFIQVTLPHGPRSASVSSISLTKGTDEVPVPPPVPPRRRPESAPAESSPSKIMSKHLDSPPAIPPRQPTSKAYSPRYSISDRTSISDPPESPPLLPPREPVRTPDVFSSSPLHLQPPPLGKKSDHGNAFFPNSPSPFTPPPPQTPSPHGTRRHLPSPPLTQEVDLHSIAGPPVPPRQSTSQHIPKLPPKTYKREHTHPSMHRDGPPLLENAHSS
In words: biochemical.
One may read the IC50 as the concentration needed to halve the response being measured. On to `C[C@@H](Nc1nnc(N2CCC(F)(F)C2)c2cc(=O)n(C3(C)CC3)cc12)c1cccc(C(F)F)c1F` [Example 26, (R)-4-((1-(3-(difluoromethyl)-2-fluorophenyl)ethyl)amino)-1-(3,3-difluoropyrrolidin-1-yl)-6-(1-methylcyclopropyl) pyrido[3,4-d]pyridazin-7(6H)-one], for which it took 18.8 nM to reach half-maximal inhibition (IC50).

With `C[C@@H](Nc1nnc(NC2CN3CCC2CC3)c2cc(=O)n(C3(C)CC3)cc12)c1cccc(C(F)F)c1F` (stereo partly drawn) [Example 133, 4-(((R)-1-(3-(difluoromethyl)-2-fluorophenyl)ethyl)amino)-6-(1-methylcyclopropyl)-1-(quinuclidin-3-ylamino)pyrido[3,4-d]pyridazin-7(6H)-one], the IC50 is 6.5 nM.

With `C[C@@H](Nc1nnc(N2CCN(C3CCCC3)CC2)c2cc(=O)n(C)cc12)c1cccc(C(F)F)c1F` [Example 146, (R)-1-(4-cyclopentylpiperazin-1-yl)-4-((1-(3-(difluoromethyl)-2-fluorophenyl)ethyl)amino)-6-methylpyrido[3,4-d]pyridazin-7(6H)-one], the IC50 was determined as 12.5 nM.

In the case of `Cc1c([C@@H](C)Nc2nnc(N3CCN(C4CCC4)CC3)c3cc(=O)n(C4(C)CC4)cc23)cccc1C(F)(F)F` [Example 94, (R)-1-(4-cyclobutylpiperazin-1-yl)-4-((1-(2-methyl-3-(trifluoromethyl)phenyl)ethyl)amino)-6-(1-methylcyclopropyl) pyrido[3,4-d]pyridazin-7(6H)-one], the IC50 is 7.3 nM.

Compound `C[C@@H](Nc1nnc(N2CCCC2)c2cc(=O)n(C3CC3)cc12)c1cccc(C(F)F)c1F` [Example 4, (R)-6-cyclopropyl-4-((1-(3-(difluoromethyl)-2-fluorophenyl)ethyl)amino)-1-(pyrrolidin-1-yl) pyrido[3,4-d]pyridazin-7(6H)-one] yielded an IC50 of 4.9 nM.

Compound `C[C@@H]1CCCN1c1nnc(N[C@H](C)c2cccc(C(F)F)c2F)c2cn(C3(C)CC3)c(=O)cc12` [Example 28, 4-(((R)-1-(3-(difluoromethyl)-2-fluorophenyl)ethyl)amino)-6-(1-methylcyclopropyl)-1-((R)-2-methylpyrrolidin-1-yl)pyrido[3,4-d]pyridazin-7(6H)-one] registered an IC50 of 5.7 nM.

`C[C@@H](Nc1nnc(-n2cccn2)c2cc(=O)n(C3CC3)cc12)c1cccc(C(F)F)c1F` [Example 30, (R)-6-cyclopropyl-4-((1-(3-(difluoromethyl)-2-fluorophenyl)ethyl)amino)-1-(1H-pyrazol-1-yl) pyrido[3,4-d]pyridazin-7(6H)-one] registered an IC50 of 33.5 nM.

For the compound `C[C@@H](Nc1nnc(N2CC3COCC3C2)c2cc(=O)n(C3(C)CC3)cc12)c1cccc(C(F)F)c1F` (stereo partly drawn) [Example 205, 4-(((R)-1-(3-(difluoromethyl)-2-fluorophenyl)ethyl)amino)-6-(1-methylcyclopropyl)-1-(tetrahydro-1H-furo[3,4-c]pyrrol-5(3H)-yl)pyrido[3,4-d]pyridazin-7(6H)-one], the IC50 stood at 4.1 nM.

For `C[C@@H](Nc1nnc(N2CC3CC2CO3)c2cc(=O)n(C3(C)CC3)cc12)c1cccc(C(F)(F)F)c1F` (stereo partly drawn) [Example 175, 1-(2-oxa-5-azabicyclo[2.2.1]heptan-5-yl)-4-(((R)-1-(2-fluoro-3-(trifluoromethyl)phenyl)ethyl)amino)-6-(1-methylcyclopropyl) pyrido[3,4-d]pyridazin-7(6H)-one], half-maximal inhibition (IC50) required 13 nM.

As for `C[C@@H](Nc1nnc(N2CCN(CC3CC3)CC2)c2cc(=O)n(C3CC(F)(F)C3)cc12)c1cccc(C(F)F)c1F` [Example 107, (R)-6-(3,3-difluorocyclobutyl)-4-((1-(3-(difluoromethyl)-2-fluorophenyl)ethyl)amino)-1-(4-(cyclopropylmethyl)piperazin-1-yl)pyrido[3,4-d]pyridazin-7(6H)-one], the IC50 is 4.2 nM.

As to `C[C@@H](Nc1nnc(N2CCN3CCCCC3C2)c2cc(=O)n(C3(C)CC3)cc12)c1cccc(C(F)F)c1F` (stereo partly drawn) [Example 203, 4-(((R)-1-(3-(difluoromethyl)-2-fluorophenyl)ethyl)amino)-6-(1-methylcyclopropyl)-1-(octahydro-2H-pyrido[1,2-a]pyrazin-2-yl)pyrido[3,4-d]pyridazin-7(6H)-one], 3.8 nM corresponded to half-maximal inhibition (IC50).

The compound `Cc1c([C@@H](C)Nc2nnc(N3CCSC3)c3cc(=O)n(C4CC4)cc23)cccc1C(F)(F)F` [Example 57, (R)-6-cyclopropyl-4-((1-(2-methyl-3-(trifluoromethyl)phenyl)ethyl)amino)-1-(thiazolidin-3-yl)pyrido[3,4-d]pyridazin-7(6H)-one] came in with an IC50 of 25.6 nM.

Compound `C[C@@H](Nc1nnc(NC2COC2)c2cc(=O)n(C3(C)CC3)cc12)c1cccc(C(F)F)c1F` [Example 115, (R)-4-((1-(3-(difluoromethyl)-2-fluorophenyl)ethyl)amino)-6-(1-methylcyclopropyl)-1-(oxetan-3-ylamino)pyrido[3,4-d]pyridazin-7(6H)-one] came in with an IC50 of 4.1 nM.

Compound `C[C@@H](Nc1nnc(-n2cccn2)c2cc(=O)n(C3(C)CC3)cc12)c1cccc(C(F)F)c1F` [Example 33, (R)-4-((1-(3-(difluoromethyl)-2-fluorophenyl)ethyl)amino)-6-(1-methylcyclopropyl)-1-(1H-pyrazol-1-yl)pyrido[3,4-d]pyridazin-7(6H)-one] yielded a half-maximal inhibitory concentration (IC50) of 22.5 nM.

In turn, `Cc1c(C#N)cccc1[C@@H](C)Nc1nnc(N2CC3CC3C2)c2cc(=O)n(C3(C)CC3)cc12` (stereo partly drawn) [Example 46, 3-((1R)-1-((1-(3-azabicyclo[3.1.0]hexan-3-yl)-6-(1-methylcyclopropyl)-7-oxo-6,7-dihydropyrido[3,4-d]pyridazin-4-yl)amino)ethyl)-2-methylbenzonitrile] registered an IC50 of 9.3 nM.

Take `Cc1cc(N)cc([C@@H](C)Nc2nnc(N3CCN(C)CC3)c3cc(=O)n(C4(C)CC4)cc23)c1F` [Example 152, (R)-4-((1-(5-amino-2-fluoro-3-methylphenyl)ethyl)amino)-6-(1-methylcyclopropyl)-1-(4-methylpiperazin-1-yl)pyrido[3,4-d]pyridazin-7(6H)-one]: half-maximal inhibition (IC50) required 4.2 nM.

Turning to `Cc1c(C#N)cccc1[C@@H](C)Nc1nnc(N2CCN(C3CC3)CC2)c2cc(=O)n(C3CC3)cc12` [Example 99, (R)-3-(1-((6-cyclopropyl-1-(4-cyclopropylpiperazin-1-yl)-7-oxo-6,7-dihydropyrido[3,4-d]pyridazin-4-yl)amino)ethyl)-2-methylbenzonitrile], half-maximal inhibition (IC50) required 11.3 nM.

In turn, `Cc1c(C#N)cccc1[C@@H](C)Nc1nnc(N2CCN(C)[C@H](C)C2)c2cc(=O)n(N3CC4CCCC4C3)cc12` (stereo partly drawn) [Example 167, 3-((1R)-1-((1-((R)-3,4-dimethylpiperazin-1-yl)-6-(hexahydrocyclopenta[c]pyrrol-2(1H)-yl)-7-oxo-6,7-dihydropyrido[3,4-d]pyridazin-4-yl)amino)ethyl)-2-methylbenzonitrile] came in with an IC50 of 6.3 nM.

Compound `Cc1cc(N)cc([C@@H](C)Nc2nnc(N3CCN(C(C)C)CC3)c3cc(=O)n(C4CC4)cc23)c1F` [Example 147, (R)-4-((1-(5-amino-2-fluoro-3-methylphenyl)ethyl)amino)-6-cyclopropyl-1-(4-isopropylpiperazin-1-yl)pyrido[3,4-d]pyridazin-7(6H)-one formate] yielded an IC50 of 6.3 nM.

The values are drawn from EP4722213A1, “NITROGEN-CONTAINING FUNCTIONAL GROUP-SUBSTITUTED PYRIDAZINOPYRIDONE DERIVATIVE AND USE THEREOF” (Sichuan Huiyu Pharmaceutical Co., Ltd., priority 2023, dated 2024).
